From ChEMBL document CHEMBL5537201, “Discovery of Unique Bis-Substituted Aromatic Amide Derivatives as Novel Highly Potent Antibiotics for Combating Methicillin-Resistant Staphylococcus aureus (MRSA)” (J Med Chem, 2024) come the findings set out here.

The test system of data set [1] is Staphylococcus aureus. The data set can be described thus: Antimicrobial activity against Staphylococcus aureus ATCC6538 assessed as reduction in bacterial growth incubated for 24 hrs by two-fold broth dilution method. Format: functional. On the technique in general: Dilution methods test growth across graded concentrations, often in twofold steps.
Data set [2] concerns Staphylococcus aureus. The data set can be described thus: Antimicrobial activity against Staphylococcus aureus N315 assessed as reduction in bacterial growth incubated for 24 hrs by two-fold broth dilution method. Format: functional.
The next data set has as its system Streptomyces albus. The data set can be described thus: Antimicrobial activity against Streptomyces albus SHBC D11158 assessed as reduction in bacterial growth incubated for 24 hrs by two-fold broth dilution method. Format: functional.
For data set [3], the system named is Staphylococcus hominis. Briefly: Antimicrobial activity against methicillin-resistant Staphylococcus hominis assessed as reduction in bacterial growth incubated for 24 hrs by two-fold broth dilution method. Format: functional.
Data set [4] deals with Staphylococcus aureus. The data set can be described thus: Bactericidal activity against Staphylococcus aureus ATCC6538 assessed as reduction in survival rate at 5 to 10 times MIC measured after 30 to 120 mins by colony counting method relative to control. Format: functional. The following applies: time 30-120 min.
Data set [5] in a line: Hemolytic activity in rabbit Red blood cell assessed as hemolysis incubated for 1 hr by two-fold microdilution method. Type of data set: toxicity, cell-based, Oryctolagus cuniculus, Erythrocyte. The following applies: red blood cells (erythrocytes).
Data set [6] in a line: Selectivity index, ratio of HC50 for rabbit Red blood cell to MIC for Staphylococcus aureus ATCC6538. The following applies: red blood cells (erythrocytes), read-out: Selectivity Index. Type of data set: toxicity.
Data set [7] is described as follows: Cytotoxicity against African green monkey Vero E6 cells assessed as reduction in cell viability measured after 24 hrs by CCK-8 method. Format: toxicity, cell-based, Chlorocebus sabaeus, Vero C1008. A general note: Tetrazolium dyes change colour on reduction, which living cells bring about.
Data set [8] in a line: Selectivity index, ratio of IC50 for African green monkey Vero E6 cells to MIC for Staphylococcus aureus ATCC6538. Format: toxicity. The following applies: read-out: Selectivity Index.
For another data set, the system named is HeLa. The data set can be described thus: Cytotoxicity against human HeLa cells assessed as reduction in cell viability measured after 24 hrs by CCK-8 method. Type of data set: functional, cell-based.
A short description of data set [9]: Cytotoxicity against human HaCaT cells assessed as reduction in cell viability measured after 24 hrs by CCK-8 method. Type of data set: toxicity, cell-based.
The nature of data set [10]: Cytotoxicity against HEK293 cells assessed as reduction in cell viability measured after 24 hrs by CCK-8 method. The following applies: human. Type of data set: toxicity, cell-based.
Another data set relates to A549. Briefly: Cytotoxicity against human A549 cells assessed as reduction in cell viability measured after 24 hrs by CCK-8 method. Type of data set: functional, cell-based. The following applies: A549, 24 h.
The subject of data set [11] is Staphylococcus aureus. The data set can be described thus: Antimicrobial activity against methicillin resistant Staphylococcus aureus clinical isolate MRS1 assessed as reduction in bacterial growth incubated for 24 hrs by two-fold broth dilution method. Type of data set: functional.
The test system of data set [12] is Staphylococcus aureus. The data set can be described thus: Antimicrobial activity against methicillin resistant Staphylococcus aureus clinical isolate MRS23 assessed as reduction in bacterial growth incubated for 24 hrs by two-fold broth dilution method. Type of data set: functional.
The test system of data set [13] is Staphylococcus aureus. The data set can be described thus: Antimicrobial activity against methicillin resistant Staphylococcus aureus clinical isolate MRS70 assessed as reduction in bacterial growth incubated for 24 hrs by two-fold broth dilution method. Type of data set: functional.
Data set [14] deals with Staphylococcus aureus. Briefly: Antimicrobial activity against methicillin resistant Staphylococcus aureus clinical isolate MRS207 assessed as reduction in bacterial growth incubated for 24 hrs by two-fold broth dilution method. Format: functional.
Data set [15] relates to Staphylococcus aureus. Briefly: Antimicrobial activity against methicillin resistant Staphylococcus aureus clinical isolate MRS108 assessed as reduction in bacterial growth incubated for 24 hrs by two-fold broth dilution method. Type of data set: functional.
Data set [16] deals with Staphylococcus aureus. The data set can be described thus: Antimicrobial activity against methicillin resistant Staphylococcus aureus clinical isolate MRS152 assessed as reduction in bacterial growth incubated for 24 hrs by two-fold broth dilution method. Format: functional.
Data set [17] deals with Staphylococcus aureus. Briefly: Antimicrobial activity against methicillin resistant Staphylococcus aureus clinical isolate MRS200 assessed as reduction in bacterial growth incubated for 24 hrs by two-fold broth dilution method. Type of data set: functional.
For data set [18], the system named is Staphylococcus aureus. Briefly: Antimicrobial activity against methicillin resistant Staphylococcus aureus clinical isolate MRS273 assessed as reduction in bacterial growth incubated for 24 hrs by two-fold broth dilution method. Type of data set: functional.
Data set [19] has as its system Staphylococcus aureus. Briefly: Antimicrobial activity against methicillin resistant Staphylococcus aureus clinical isolate MRS153 assessed as reduction in bacterial growth incubated for 24 hrs by two-fold broth dilution method. Type of data set: functional.
Data set [20] has as its system Staphylococcus aureus. Briefly: Antimicrobial activity against methicillin resistant Staphylococcus aureus clinical isolate MRS84 assessed as reduction in bacterial growth incubated for 24 hrs by two-fold broth dilution method. Format: functional.
Data set [21] deals with Staphylococcus aureus. The data set can be described thus: Antimicrobial activity against methicillin resistant Staphylococcus aureus clinical isolate MRS121 assessed as reduction in bacterial growth incubated for 24 hrs by two-fold broth dilution method. Format: functional.
Data set [22] concerns Staphylococcus aureus. Briefly: Antimicrobial activity against methicillin resistant Staphylococcus aureus clinical isolate MRS97 assessed as reduction in bacterial growth incubated for 24 hrs by two-fold broth dilution method. Format: functional.
The test system of data set [23] is Staphylococcus aureus. Briefly: Induction of drug resistance in Staphylococcus aureus ATCC6538 assessed as change in MIC measured after 10 passages. Format: functional.
Data set [24] deals with Staphylococcus aureus. Briefly: Induction of drug resistance in Staphylococcus aureus ATCC6538 assessed as fold change in MIC measured after 10 passages. Type of data set: functional.
The test system of data set [25] is Staphylococcus aureus. Briefly: Bactericidal activity against Staphylococcus aureus ATCC6538 at 5 ug/ml measured upto 150 mins. Format: functional, organism-based. The following applies: dose 5.0 µg/ml.
Data set [26] relates to Staphylococcus aureus. Briefly: Bactericidal activity against norfloxacin-resistant Staphylococcus aureus ATCC6538 at 5 ug/ml measured upto 150 mins. Format: functional, organism-based. The following applies: dose 5.0 µg/ml.
The subject of data set [27] is Staphylococcus hominis. Briefly: Bactericidal activity against multidrug-resistant Staphylococcus hominis at 5 ug/ml measured upto 150 mins. Type of data set: functional, organism-based. The following applies: dose 5.0 µg/ml.
Data set [28] relates to Staphylococcus aureus. Briefly: Antimicrobial activity against vancomycin-resistant Staphylococcus aureus assessed as reduction in bacterial growth incubated for 24 hrs by two-fold broth dilution method. Format: functional.
Data set [29] deals with Cell membrane. Briefly: Disruption of cell membrane integrity in Staphylococcus aureus ATCC6538 assessed as increase in fluorescence intensity measured upto 36 mins ethidium bromide uptake assay. Type of data set: cell membranes.
The subject of data set [30] is Cell membrane. Briefly: Disruption of cell membrane integrity in methicillin resistant Staphylococcus aureus clinical isolate MRS153 assessed as increase in fluorescence intensity measured upto 36 mins ethidium bromide uptake assay. Format: cell membranes.
In data set [31] the test system is Staphylococcus aureus. The data set can be described thus: Bactericidal activity against methicillin-resistant Staphylococcus aureus clinical isolate MRS1 at 5 ug/ml measured upto 150 mins. Type of data set: functional, organism-based. The following applies: dose 5.0 µg/ml.
The test system of data set [32] is Staphylococcus aureus. Briefly: Bactericidal activity against methicillin-resistant Staphylococcus aureus clinical isolate MRS153 at 5 ug/ml measured upto 150 mins. Format: functional, organism-based. The following applies: dose 5.0 µg/ml.
The test system of data set [33] is Staphylococcus aureus. The data set can be described thus: Bactericidal activity against methicillin-resistant Staphylococcus aureus clinical isolate MRS97 at 5 ug/ml measured upto 150 mins. The following applies: dose 5.0 µg/ml. Format: functional, organism-based.

In brackets after ≈: the same amount, converted by molar mass. Activity calls are given as the source filed them. The rule behind the calls is not given here. Where only a bound is given, the exact number is not on record here.

In the case of `O=C(CCC(F)(F)F)N(Cc1cc2ccccc2s1)c1cc(-c2ccco2)ccc1O`, the MIC (usually the least concentration at which growth counts as inhibited) in the data set on Staphylococcus aureus [1] is 2 µg/mL (≈ 4.49 µM); in the data set on Staphylococcus aureus [2] it was 1 µg/mL (≈ 2.24 µM); in the data set with Streptomyces albus, 16 µg/mL (≈ 35.9 µM); in the data set with Staphylococcus hominis [3] it was 16 µg/mL (≈ 35.9 µM); with Staphylococcus aureus [11], 6 µg/mL (≈ 13.5 µM); in the data set with Staphylococcus aureus [12], 2 µg/mL (≈ 4.49 µM). The MIC in the data set on Staphylococcus aureus [13] is 6 µg/mL (≈ 13.5 µM); with Staphylococcus aureus [14], 8 µg/mL (≈ 18 µM); in the data set on Staphylococcus aureus [15] it was 6 µg/mL (≈ 13.5 µM); in the data set on Staphylococcus aureus [16], 6 µg/mL (≈ 13.5 µM); in the data set on Staphylococcus aureus [17], 6 µg/mL (≈ 13.5 µM); in the data set with Staphylococcus aureus [18], 3 µg/mL (≈ 6.73 µM). Further, the MIC in the data set with Staphylococcus aureus [19] came to 2 µg/mL (≈ 4.49 µM); in the data set with Staphylococcus aureus [20], 3 µg/mL (≈ 6.73 µM); with Staphylococcus aureus [21], 6 µg/mL (≈ 13.5 µM); in the data set with Staphylococcus aureus [22] it was 3 µg/mL (≈ 6.73 µM). The Survival in the data set with Staphylococcus aureus [4] is on record as under 1%. For the same compound, the HC50 (commonly the concentration that lyses half of the red blood cells) at 1 h in data set [5] is 1640 µg/mL. For the same compound, the results for the selectivity ratio in data set [6] and in [8] were over 1000 and over 25, respectively. Moreover, the IC50 (commonly the concentration at which inhibition is half-maximal) at 24 h in [7] is over 25 µg/mL; in [9] it was over 25 µg/mL; in data set [10] it was 15.4 µg/mL (≈ 34.6 µM). Moreover, the IC50 in the data set with HeLa and with A549 was over 25 µg/mL in each case. In addition, in the data set on Staphylococcus aureus [23], the outcome was inactive.

Consider `CCn1cc(C(=O)O)c(=O)c2cc(F)c(N3CCNCC3)cc21`, for which, in the data set with Staphylococcus aureus [24], the fold change (FC) turned out to be 256. Also, the result in the data set with Staphylococcus aureus [25] was Active. Moreover, in the data set on Staphylococcus aureus [26], the result was inactive.

As to `CN[C@H](CC(C)C)C(=O)N[C@H]1C(=O)N[C@@H](CC(N)=O)C(=O)N[C@H]2C(=O)N[C@H]3C(=O)N[C@H](C(=O)N[C@H](C(=O)O)c4cc(O)cc(O)c4-c4cc3ccc4O)[C@H](O)c3ccc(c(Cl)c3)Oc3cc2cc(c3O[C@@H]2O[C@H](CO)[C@@H](O)[C@H](O)[C@H]2O[C@H]2C[C@](C)(N)[C@H](O)[C@H](C)O2)Oc2ccc(cc2Cl)[C@H]1O` [VANCOMYCIN], the results for the MIC in the data set on Streptomyces albus, with Staphylococcus hominis [3] and in the data set on Staphylococcus aureus [28] were 2 µg/mL (≈ 1.38 µM), 1 µg/mL (≈ 0.69 µM) and at least 8 µg/mL, respectively. Further, the outcome with Staphylococcus aureus [25], in the data set on Staphylococcus hominis [27], with Cell membrane [29] and with Cell membrane [30] was inactive.

As for `COc1cccc(OC)c1C(=O)N[C@@H]1C(=O)N2[C@@H]1SC(C)(C)[C@@H]2C(=O)O` [METHICILLIN], the MIC amounted to 1 µg/mL (≈ 2.63 µM) with Staphylococcus aureus [1]; 4 µg/mL (≈ 10.5 µM) in the data set on Streptomyces albus; 2 µg/mL (≈ 5.26 µM) in the data set on Staphylococcus hominis [3]; 16 µg/mL (≈ 42.1 µM) in the data set with Staphylococcus aureus [11]; 8 µg/mL (≈ 21 µM) in the data set with Staphylococcus aureus [12]; 16 µg/mL (≈ 42.1 µM) in the data set with Staphylococcus aureus [13]. The MIC in the data set with Staphylococcus aureus [14] is 16 µg/mL (≈ 42.1 µM); in the data set on Staphylococcus aureus [15] it was 16 µg/mL (≈ 42.1 µM); in the data set on Staphylococcus aureus [16] it was 8 µg/mL (≈ 21 µM); in the data set with Staphylococcus aureus [17], over 16 µg/mL; with Staphylococcus aureus [18], 16 µg/mL (≈ 42.1 µM); in the data set on Staphylococcus aureus [19], over 16 µg/mL. In addition, the MIC stood at 16 µg/mL (≈ 42.1 µM) with Staphylococcus aureus [20], 8 µg/mL (≈ 21 µM) in the data set with Staphylococcus aureus [21] and 8 µg/mL (≈ 21 µM) in the data set on Staphylococcus aureus [22]. Also, the outcome with Staphylococcus aureus [31], in the data set on Staphylococcus aureus [32] and with Staphylococcus aureus [33] was inactive.
